Results taken from patent US20230015478A1, “GLP-1 RECEPTOR AGONISTS HAVING IMPROVED PHARMACOLOGICAL AND DRUG DELIVERY PROPERTIES” (priority 2021, published 2023).
Like-named read-outs stand apart in the source and are kept apart here. One block for each compound: values may come before it. Numbered stars: 1 amine (or outer) side, 2 acyl side, 3 side chain; on linkers, the order of the positions; unused ones are H or OH. Square brackets hold non-standard residues; d marks the D form. Side chains are listed from the residue outwards. Peptide text beside a SMILES is read from it. * marks the point of attachment. Phe(2-CF3) = N[C@@H](Cc1ccccc1C(F)(F)F)C(=O)O; Bip = N[C@@H](Cc1ccc(-c2ccccc2)cc1)C(=O)O; C18 diacid = O=C(O)CCCCCCCCCCCCCCCCC(=O)*; X2 = O=C(CCc1ccc(I)cc1)N[C@@H](CN*)C(=O)O; αMePhe(2-F) = C[C@](N)(Cc1ccccc1F)C(=O)O; γGlu = O=C(O)[C@H](CCC(=O)[*:2])N[*:1]; hPhe = N[C@@H](CCc1ccccc1)C(=O)O; αMeP = C[C@@]1(C(=O)O)CCCN1; AEEA = NCCOCCOCC(=O)O; Aib = CC(C)(N)C(=O)O

Target: T1, hGLP1 receptor (Homo sapiens, UniProt P43220)
T1 construct: expressed in transfected cells; host or cells: HEK (human embryonic kidney) cells co-expressing hGLP1 receptor and CRE-Luciferase
T1 sequence (P43220 24-463): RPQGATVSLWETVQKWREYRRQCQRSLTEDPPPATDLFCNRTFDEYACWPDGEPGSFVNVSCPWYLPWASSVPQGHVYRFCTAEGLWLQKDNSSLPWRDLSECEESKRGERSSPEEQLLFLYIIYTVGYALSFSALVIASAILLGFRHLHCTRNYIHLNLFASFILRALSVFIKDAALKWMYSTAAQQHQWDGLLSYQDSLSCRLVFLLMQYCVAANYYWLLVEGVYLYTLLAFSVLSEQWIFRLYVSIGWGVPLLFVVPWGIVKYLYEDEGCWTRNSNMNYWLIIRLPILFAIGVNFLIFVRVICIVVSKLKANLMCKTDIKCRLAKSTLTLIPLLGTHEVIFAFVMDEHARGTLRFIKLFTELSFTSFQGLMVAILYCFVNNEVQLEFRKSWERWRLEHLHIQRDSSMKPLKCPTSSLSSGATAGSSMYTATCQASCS
Experiment: cAMP HTRF agonist assay in HEK cells co-expressing hGLP1 receptor and CRE-Luciferase
Assay type: cell-based
Conditions: for fold lower potency than the parent peptide (1-4): relative to parent 1-4
Summary of the method: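 HEK cells co-expressing hGLP1R and CRE-luciferase, 1000 cells/well in DPBS with 500 μM IBMX, exposed to peptides or exendin-4 reference for 30 min; 11-point 1:3 series from top 1.0 μM. cAMP measured by HTRF (665/615 nm) after 1 h at room temperature; EC50 from 4-parameter logistic fit.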

[1] = cAMP EC50, nM (0.1% albumin), Table 4, 0.1% albumin
[2] = cAMP EC50, nM (0.1% albumin), Table 6, 0.1% albumin
[3] = cAMP EC50, nM (0.1% albumin), Table 1, 0.1% albumin
[4] = cAMP EC50, nM (0.1% albumin), Table 3, 0.1% albumin
[5] = Table 5, 0% albumin, read-out: cAMP EC50, nM (0% albumin)

EC50 [2]: 5.1 nM
Compound: C[C@@H](O)[C@H](NC(=O)CNC(=O)[C@H](CCC(=O)O)NC(=O)[C@]1(C)CCCN1C(=O)[C@@H](N)Cc1c[nH]cn1)C(=O)N[C@@](C)(Cc1ccccc1F)C(=O)N[C@H](C(=O)N[C@@H](CO)C(=O)N[C@@H](CC(=O)O)C(=O)N[C@@H](Cc1ccc(-c2ccccc2)cc1)C(=O)N[C@@H](Cc1ccc(-c2ccccc2)cc1)C(=O)N[C@@H](CCCCNC(=O)CC[C@H](NC(=O)CCCCCCCCCCCCCCCCC(=O)O)C(=O)O)C(N)=O)[C@@H](C)O [4-69, H2N-His-α-MePro-Glu-Gly-Thr-α-MePhe(2-F)-Thr-Ser-Asp-Bip-Bip-C(O)NH-RY25] (H-H[αMeP]EGT[αMePhe(2-F)]TSD[Bip][Bip]K([γGlu-C18 diacid])-NH2)

EC50 [3]: 97.1 nM
Compound: C[C@@H](O)[C@H](NC(=O)CNC(=O)[C@H](CCC(=O)O)NC(=O)C(C)(C)NC(=O)[C@@H](N)Cc1c[nH]cn1)C(=O)N[C@@H](Cc1ccccc1C(F)(F)F)C(=O)N[C@H](C(=O)N[C@@H](CO)C(=O)N[C@@H](CC(=O)O)C(=O)N[C@@H](Cc1ccc(-c2ccccc2)cc1)C(=O)N[C@@H](Cc1ccc(-c2ccccc2)cc1)C(N)=O)[C@@H](C)O [3-3, H2N-His-Aib-Glu-Gly-Thr-Phe(2-CF3)-Thr-Ser-Asp-Bip-Bip-C(O)NH2] (H-H[Aib]EGT[Phe(2-CF3)]TSD[Bip][Bip]-NH2)

EC50 [2]: 14 nM
Compound: C[C@@H](O)[C@H](NC(=O)CNC(=O)[C@H](CCC(=O)O)NC(=O)C(C)(C)NC(=O)[C@@H](N)Cc1c[nH]cn1)C(=O)N[C@@](C)(Cc1ccccc1F)C(=O)N[C@H](C(=O)N[C@@H](CO)C(=O)N[C@@H](CC(=O)O)C(=O)N[C@@H](Cc1ccc(-c2ccccc2)cc1)C(=O)N[C@@H](Cc1ccc(-c2ccccc2)cc1)C(=O)NCCOCCOCC(=O)NCCOCCOCC(=O)N[C@@H](CCCCN)C(N)=O)[C@@H](C)O [4-30, H2N-His-Aib-Glu-Gly-Thr-α-MePhe(2F)-Thr-Ser-Asp-Bip-Bip-C(O)(AEEA)2-Lys-NH2] (H-H[Aib]EGT[αMePhe(2-F)]TSD[Bip][Bip][AEEA][AEEA]K-NH2)

fold lower potency than the parent peptide (1-4): equipotency
Compound: C[C@@H](O)[C@H](NC(=O)CNC(=O)[C@H](CCC(=O)O)NC(=O)C(C)(C)NC(=O)[C@@H](N)Cc1c[nH]cn1)C(=O)N[C@@](C)(Cc1ccccc1F)C(=O)N[C@H](C(=O)N[C@@H](CO)C(=O)N[C@@H](CC(=O)O)C(=O)N[C@@H](Cc1ccc(-c2ccccc2)cc1)C(=O)N[C@@H](CCc1ccccc1)C(=O)NCCOCCOCC(=O)NCCOCCOCC(=O)NCCOCCOCC(=O)NC[C@H](NC(=O)CCc1ccc(I)cc1)C(=O)O)[C@@H](C)O [4-37, H2N-His-Aib-Glu-Gly-Thr-α-MePhe(2-F)-Thr-Ser-Asp-Bip-Hph-C(O)NH-RY3] (H-H[Aib]EGT[αMePhe(2-F)]TSD[Bip][hPhe][AEEA][AEEA][AEEA]-X2)

EC50 [5]: 272 nM
fold lower potency than the parent peptide (1-4): about 30 fold
Compound: C[C@@H](O)[C@H](NC(=O)CNC(=O)[C@H](CCC(=O)O)NC(=O)C(C)(C)NC(=O)[C@@H](N)Cc1c[nH]cn1)C(=O)N[C@@](C)(Cc1ccccc1F)C(=O)N[C@H](C(=O)N[C@@H](CO)C(=O)N[C@@H](CC(=O)O)C(=O)N[C@@H](Cc1ccc(-c2ccccc2)cc1)C(=O)N[C@@H](CCc1ccccc1)C(=O)O)[C@@H](C)O [4-1, H2N-His-Aib-Glu-Gly-Thr-α-MePhe(2-F)-Thr-Ser-Asp-Bip-Hph-C(O)OH] (H-H[Aib]EGT[αMePhe(2-F)]TSD[Bip][hPhe]-OH)

EC50 [2]: 1.3 nM
Compound: C[C@@H](O)[C@H](NC(=O)CNC(=O)[C@H](CCC(=O)O)NC(=O)[C@]1(C)CCCN1C(=O)[C@@H](N)Cc1c[nH]cn1)C(=O)N[C@@](C)(Cc1ccccc1F)C(=O)N[C@H](C(=O)N[C@@H](CO)C(=O)N[C@@H](CC(=O)O)C(=O)N[C@@H](Cc1ccc(-c2ccccc2)cc1)C(=O)N[C@@H](Cc1ccc(-c2ccccc2)cc1)C(=O)NCCOCCOCC(=O)NCCOCCOCC(=O)NCCOCCOCC(=O)NC[C@H](NC(=O)CCc1ccc(I)cc1)C(=O)O)[C@@H](C)O [4-59, H2N-His-α-MePro -Glu-Gly-Thr-α-MePhe(2-F)-Thr-Ser-Asp-Bip-Bip-C(O)NH-RY15] (H-H[αMeP]EGT[αMePhe(2-F)]TSD[Bip][Bip][AEEA][AEEA][AEEA]-X2)

EC50 [2]: 5 nM
Compound: C[C@@H](O)[C@H](NC(=O)CNC(=O)[C@H](CCC(=O)O)NC(=O)C(C)(C)NC(=O)[C@@H](N)Cc1c[nH]cn1)C(=O)N[C@@](C)(Cc1ccccc1F)C(=O)N[C@H](C(=O)N[C@@H](CO)C(=O)N[C@@H](CC(=O)O)C(=O)N[C@@H](Cc1ccc(-c2ccccc2)cc1)C(=O)N[C@@H](Cc1ccc(-c2ccccc2)cc1)C(=O)N[C@@H](CCCCNC(=O)COCCOCCNC(=O)COCCOCCNC(=O)CC[C@H](NC(=O)CCCCCCCCCCCCCCCCC(=O)O)C(=O)O)C(N)=O)[C@@H](C)O [4-49, H2N-His-Aib-Glu-Gly-Thr-α-MePhe(2-F)-Thr-Ser-Asp-Bip-Bip-C(O)NH-RY11] (H-H[Aib]EGT[αMePhe(2-F)]TSD[Bip][Bip]K([AEEA-AEEA-γGlu-C18 diacid])-NH2)

The remaining lines, values behind:

Compound: C[C@@H](O)[C@H](NC(=O)CNC(=O)[C@H](CCC(=O)O)NC(=O)C(C)(C)NC(=O)[C@H](Cc1c[nH]cn1)NC(=O)[C@@H]1CCCN1)C(=O)N[C@@H](Cc1ccccc1)C(=O)N[C@H](C(=O)N[C@@H](CO)C(=O)N[C@@H](CC(=O)O)C(=O)N[C@@H](Cc1ccc(-c2ccccc2)cc1)C(=O)N[C@@H](Cc1ccc(-c2ccccc2)cc1)C(N)=O)[C@@H](C)O [2-4, H2N-Pro-His-Aib-Glu-Gly-Thr-Phe-Thr-Ser-Asp-Bip-Bip-C(O)NH2] (H-PH[Aib]EGTFTSD[Bip][Bip]-NH2)
EC50 [1]: 14.7 nM

Compound: C[C@@H](O)[C@H](NC(=O)CNC(=O)[C@H](CCC(=O)O)NC(=O)C(C)(C)NC(=O)[C@@H](N)Cc1c[nH]cn1)C(=O)N[C@@](C)(Cc1ccccc1F)C(=O)N[C@H](C(=O)N[C@@H](CO)C(=O)NC(C)(C)C(=O)N[C@@H](Cc1ccc(-c2ccccc2)cc1)C(=O)N[C@@H](Cc1ccc(-c2ccccc2)cc1)C(N)=O)[C@@H](C)O [3-37, H2N-His-Aib-Glu-Gly-Thr-αMePhe(2-F)-Thr-Ser-Aib-Bip-Bip-C(O)NH2] (H-H[Aib]EGT[αMePhe(2-F)]TS[Aib][Bip][Bip]-NH2)
EC50 [4]: 91.6 nM

Compound: C[C@@H](O)[C@H](NC(=O)CNC(=O)[C@H](CCC(=O)O)NC(=O)C(C)(C)NC(=O)[C@@H](N)Cc1c[nH]cn1)C(=O)N[C@@](C)(Cc1ccccc1F)C(=O)N[C@H](C(=O)N[C@@H](CO)C(=O)N[C@@H](CC(=O)O)C(=O)N[C@@H](Cc1ccc(-c2ccccc2)cc1)C(=O)N[C@@H](Cc1ccc(-c2ccccc2)cc1)C(N)=O)[C@@H](C)O [1-2, H2N-His-Aib-Glu-Gly-Thr-α-MePhe(2-F)-Thr-Ser-Asp-Bip-Bip-C(O)NH2] (H-H[Aib]EGT[αMePhe(2-F)]TSD[Bip][Bip]-NH2)
EC50 [5]: 0.09 nM
EC50 [3]: 0.09 nM
EC50 [4]: 0.09 nM
EC50 [1]: 0.09 nM
EC50 [2]: 0.09 nM

Compound: C[C@@H](O)[C@H](NC(=O)CNC(=O)[C@H](CCC(=O)O)NC(=O)C(C)(C)NC(=O)[C@H](Cc1c[nH]cn1)NC(=O)[C@@H](N)Cc1c[nH]c2ccccc12)C(=O)N[C@@H](Cc1ccccc1)C(=O)N[C@H](C(=O)N[C@@H](CO)C(=O)N[C@@H](CC(=O)O)C(=O)N[C@@H](Cc1ccc(-c2ccccc2)cc1)C(=O)N[C@@H](Cc1ccc(-c2ccccc2)cc1)C(N)=O)[C@@H](C)O [2-5, H2N-Trp-His-Aib-Glu-Gly-Thr-Phe-Thr-Ser-Asp-Bip-Bip-C(O)NH2] (H-WH[Aib]EGTFTSD[Bip][Bip]-NH2)
EC50 [1]: 10.9 nM

Compound: C[C@@H](O)[C@H](NC(=O)CNC(=O)[C@H](CCC(=O)O)NC(=O)C(C)(C)NC(=O)[C@@H](N)Cc1c[nH]cn1)C(=O)N[C@@](C)(Cc1ccccc1F)C(=O)NC(C)(C)C(=O)N[C@@H](CO)C(=O)N[C@@H](CC(=O)O)C(=O)N[C@@H](Cc1ccc(-c2ccccc2)cc1)C(=O)N[C@@H](Cc1ccc(-c2ccccc2)cc1)C(N)=O [3-35, H2N-His-Aib-Glu-Gly-Thr-αMePhe(2-F)-Aib-Ser-Asp-Bip-Bip-C(O)NH2] (H-H[Aib]EGT[αMePhe(2-F)][Aib]SD[Bip][Bip]-NH2)
EC50 [4]: 91.4 nM

Compound: CC(C)C[C@H](NC(=O)[C@@H](N)Cc1ccccc1)C(=O)NC(C)(C)C(=O)N[C@@H](CCC(=O)O)C(=O)NCC(=O)N[C@H](C(=O)N[C@@](C)(Cc1ccccc1F)C(=O)N[C@H](C(=O)N[C@@H](CO)C(=O)N[C@@H](CC(=O)O)C(=O)N[C@@H](Cc1ccc(-c2ccccc2)cc1)C(=O)N[C@@H](Cc1ccc(-c2ccccc2)cc1)C(N)=O)[C@@H](C)O)[C@@H](C)O [2-8, H2N-Phe-Leu-Aib-Glu-Gly-Thr-α-MePhe(2-F)-Thr-Ser-Asp-Bip-Bip-C(O)NH2] (H-FL[Aib]EGT[αMePhe(2-F)]TSD[Bip][Bip]-NH2)
EC50 [1]: 4.1 nM

Compound: C[C@@H](O)[C@H](NC(=O)CNC(=O)[C@H](CCC(=O)O)NC(=O)C(C)(C)NC(=O)[C@H](Cc1c[nH]cn1)NC(=O)[C@@H](N)CCCNC(=N)N)C(=O)N[C@@H](Cc1ccccc1)C(=O)N[C@H](C(=O)N[C@@H](CO)C(=O)N[C@@H](CC(=O)O)C(=O)N[C@@H](Cc1ccc(-c2ccccc2)cc1)C(=O)N[C@@H](Cc1ccc(-c2ccccc2)cc1)C(N)=O)[C@@H](C)O [2-1, H2N-Arg-His-Aib-Glu-Gly-Thr-Phe-Thr-Ser-Asp-Bip-Bip-C(O)NH2] (H-RH[Aib]EGTFTSD[Bip][Bip]-NH2)
EC50 [1]: 10.6 nM

Compound: C[C@@H](O)[C@H](NC(=O)CNC(=O)[C@H](CCC(=O)O)NC(=O)C(C)(C)NC(=O)[C@@H](N)Cc1c[nH]cn1)C(=O)N[C@@H](Cc1ccccc1)C(=O)N[C@H](C(=O)N[C@@H](CO)C(=O)N[C@@H](CC(=O)O)C(=O)N[C@@H](Cc1ccc(-c2ccccc2)cc1)C(=O)N[C@@H](Cc1ccc(-c2ccccc2)cc1)C(N)=O)[C@@H](C)O [1-1, H2N-His-Aib-Glu-Gly-Thr-Phe-Thr-Ser-Asp-Bip-Bip-C(O)NH2] (H-H[Aib]EGTFTSD[Bip][Bip]-NH2)
EC50 [5]: 6.82 nM
EC50 [3]: 6.82 nM
